± gives the expanded uncertainty stated by the source.
Assay: xn = mol fraction of the nth substance listed
Settings: 101 kPa, Liquid

CCCCn1cc[n+](C)c1.N#C[S-] [1-butyl-3-methylimidazolium thiocyanate] + CCCCCCCO
mass density (298.15 K, x1 = 0.0806): 845.64 ± 0.42 kg/m3 | viscosity (298.15 K, x1 = 0.0806): 7.319 ± 0.21 mPa·s | mass density (298.15 K, x1 = 0.14): 864.24 ± 0.41 kg/m3 | viscosity (298.15 K, x1 = 0.14): 8.422 ± 0.24 mPa·s | mass density (298.15 K, x1 = 0.2203): 888.14 ± 0.4 kg/m3 | viscosity (298.15 K, x1 = 0.2203): 10.16 ± 0.29 mPa·s | mass density (298.15 K, x1 = 0.3006): 910.91 ± 0.4 kg/m3 | viscosity (298.15 K, x1 = 0.3006): 12.31 ± 0.34 mPa·s | mass density (298.15 K, x1 = 0.3997): 937.73 ± 0.41 kg/m3 | viscosity (298.15 K, x1 = 0.3997): 15.5 ± 0.42 mPa·s | mass density (298.15 K, x1 = 0.4903): 960.98 ± 0.43 kg/m3 | viscosity (298.15 K, x1 = 0.4903): 18.92 ± 0.51 mPa·s | mass density (298.15 K, x1 = 0.5703): 980.45 ± 0.45 kg/m3 | viscosity (298.15 K, x1 = 0.5703): 22.22 ± 0.6 mPa·s | mass density (298.15 K, x1 = 0.6949): 1008.83 ± 0.54 kg/m3 | viscosity (298.15 K, x1 = 0.6949): 28.65 ± 0.77 mPa·s | mass density (298.15 K, x1 = 0.7981): 1031.04 ± 0.69 kg/m3 | viscosity (298.15 K, x1 = 0.7981): 34.6 ± 0.93 mPa·s | mass density (298.15 K, x1 = 0.8852): 1048.62 ± 0.83 kg/m3 | viscosity (298.15 K, x1 = 0.8852): 39.81 ± 1.1 mPa·s | mass density (298.15 K, x1 = 0.9793): 1066.13 ± 1 kg/m3 | viscosity (298.15 K, x1 = 0.9793): 47.21 ± 1.3 mPa·s | mass density (298.15 K, x1 = 1): 1069.79 ± 1 kg/m3 | viscosity (298.15 K, x1 = 1): 51.74 ± 0.55 mPa·s | mass density (308.15 K, x1 = 0.0806): 838.75 ± 0.43 kg/m3 | viscosity (308.15 K, x1 = 0.0806): 5.395 ± 0.17 mPa·s | mass density (308.15 K, x1 = 0.14): 857.45 ± 0.41 kg/m3 | viscosity (308.15 K, x1 = 0.14): 6.213 ± 0.19 mPa·s | mass density (308.15 K, x1 = 0.2203): 881.49 ± 0.4 kg/m3 | viscosity (308.15 K, x1 = 0.2203): 7.479 ± 0.22 mPa·s | mass density (308.15 K, x1 = 0.3006): 904.36 ± 0.4 kg/m3 | viscosity (308.15 K, x1 = 0.3006): 9.061 ± 0.26 mPa·s | mass density (308.15 K, x1 = 0.3997): 931.34 ± 0.41 kg/m3 | viscosity (308.15 K, x1 = 0.3997): 11.31 ± 0.32 mPa·s | mass density (308.15 K, x1 = 0.4903): 954.7 ± 0.43 kg/m3 | viscosity (308.15 K, x1 = 0.4903): 13.59 ± 0.38 mPa·s | mass density (308.15 K, x1 = 0.5703): 974.26 ± 0.45 kg/m3 | viscosity (308.15 K, x1 = 0.5703): 15.73 ± 0.43 mPa·s | mass density (308.15 K, x1 = 0.6949): 1002.79 ± 0.54 kg/m3 | viscosity (308.15 K, x1 = 0.6949): 19.86 ± 0.54 mPa·s | mass density (308.15 K, x1 = 0.7981): 1025.06 ± 0.68 kg/m3 | viscosity (308.15 K, x1 = 0.7981): 23.67 ± 0.65 mPa·s | mass density (308.15 K, x1 = 0.8852): 1042.69 ± 0.82 kg/m3 | viscosity (308.15 K, x1 = 0.8852): 26.77 ± 0.74 mPa·s | mass density (308.15 K, x1 = 0.9793): 1060.22 ± 1 kg/m3 | viscosity (308.15 K, x1 = 0.9793): 31.2 ± 0.86 mPa·s | mass density (308.15 K, x1 = 1): 1063.89 ± 1 kg/m3 | viscosity (308.15 K, x1 = 1): 34.87 ± 0.96 mPa·s | mass density (318.15 K, x1 = 0.0806): 831.82 ± 0.43 kg/m3 | viscosity (318.15 K, x1 = 0.0806): 4.085 ± 0.13 mPa·s | mass density (318.15 K, x1 = 0.14): 850.63 ± 0.41 kg/m3 | viscosity (318.15 K, x1 = 0.14): 4.725 ± 0.15 mPa·s | mass density (318.15 K, x1 = 0.2203): 874.82 ± 0.41 kg/m3 | viscosity (318.15 K, x1 = 0.2203): 5.654 ± 0.17 mPa·s | mass density (318.15 K, x1 = 0.3006): 897.84 ± 0.4 kg/m3 | viscosity (318.15 K, x1 = 0.3006): 6.884 ± 0.2 mPa·s | mass density (318.15 K, x1 = 0.3997): 924.97 ± 0.41 kg/m3 | viscosity (318.15 K, x1 = 0.3997): 8.55 ± 0.25 mPa·s | mass density (318.15 K, x1 = 0.4903): 948.46 ± 0.43 kg/m3 | viscosity (318.15 K, x1 = 0.4903): 10.19 ± 0.29 mPa·s | mass density (318.15 K, x1 = 0.5703): 968.12 ± 0.46 kg/m3 | viscosity (318.15 K, x1 = 0.5703): 11.67 ± 0.33 mPa·s | mass density (318.15 K, x1 = 0.6949): 996.76 ± 0.53 kg/m3 | viscosity (318.15 K, x1 = 0.6949): 14.49 ± 0.4 mPa·s | mass density (318.15 K, x1 = 0.7981): 1019.11 ± 0.67 kg/m3 | viscosity (318.15 K, x1 = 0.7981): 17.02 ± 0.47 mPa·s | mass density (318.15 K, x1 = 0.8852): 1036.79 ± 0.81 kg/m3 | viscosity (318.15 K, x1 = 0.8852): 19.03 ± 0.53 mPa·s | mass density (318.15 K, x1 = 0.9793): 1054.36 ± 0.98 kg/m3 | viscosity (318.15 K, x1 = 0.9793): 21.9 ± 0.62 mPa·s | mass density (318.15 K, x1 = 1): 1058.02 ± 1 kg/m3 | viscosity (318.15 K, x1 = 1): 24.19 ± 0.68 mPa·s | mass density (328.15 K, x1 = 0.0806): 824.81 ± 0.44 kg/m3 | viscosity (328.15 K, x1 = 0.0806): 3.166 ± 0.11 mPa·s | mass density (328.15 K, x1 = 0.14): 843.79 ± 0.42 kg/m3 | viscosity (328.15 K, x1 = 0.14): 3.685 ± 0.12 mPa·s | mass density (328.15 K, x1 = 0.2203): 868.14 ± 0.41 kg/m3 | viscosity (328.15 K, x1 = 0.2203): 4.369 ± 0.14 mPa·s | mass density (328.15 K, x1 = 0.3006): 891.32 ± 0.41 kg/m3 | viscosity (328.15 K, x1 = 0.3006): 5.306 ± 0.16 mPa·s | mass density (328.15 K, x1 = 0.3997): 918.62 ± 0.41 kg/m3 | viscosity (328.15 K, x1 = 0.3997): 6.634 ± 0.2 mPa·s | mass density (328.15 K, x1 = 0.4903): 942.26 ± 0.43 kg/m3 | viscosity (328.15 K, x1 = 0.4903): 7.875 ± 0.23 mPa·s | mass density (328.15 K, x1 = 0.5703): 962.02 ± 0.46 kg/m3 | viscosity (328.15 K, x1 = 0.5703): 8.926 ± 0.26 mPa·s | mass density (328.15 K, x1 = 0.6949): 990.79 ± 0.53 kg/m3 | viscosity (328.15 K, x1 = 0.6949): 11.02 ± 0.32 mPa·s | mass density (328.15 K, x1 = 0.7981): 1013.22 ± 0.66 kg/m3 | viscosity (328.15 K, x1 = 0.7981): 12.79 ± 0.36 mPa·s | mass density (328.15 K, x1 = 0.8852): 1030.94 ± 0.8 kg/m3 | viscosity (328.15 K, x1 = 0.8852): 14.2 ± 0.4 mPa·s | mass density (328.15 K, x1 = 0.9793): 1048.56 ± 0.97 kg/m3 | viscosity (328.15 K, x1 = 0.9793): 16.16 ± 0.46 mPa·s | mass density (328.15 K, x1 = 1): 1052.19 ± 1 kg/m3 | viscosity (328.15 K, x1 = 1): 16.7 ± 0.48 mPa·s | mass density (338.15 K, x1 = 0.0806): 817.69 ± 0.44 kg/m3 | viscosity (338.15 K, x1 = 0.0806): 2.508 ± 0.094 mPa·s | mass density (338.15 K, x1 = 0.14): 836.85 ± 0.42 kg/m3 | viscosity (338.15 K, x1 = 0.14): 2.935 ± 0.1 mPa·s | mass density (338.15 K, x1 = 0.2203): 861.43 ± 0.41 kg/m3 | viscosity (338.15 K, x1 = 0.2203): 3.47 ± 0.12 mPa·s | mass density (338.15 K, x1 = 0.3006): 884.79 ± 0.41 kg/m3 | viscosity (338.15 K, x1 = 0.3006): 4.186 ± 0.14 mPa·s | mass density (338.15 K, x1 = 0.3997): 912.28 ± 0.42 kg/m3 | viscosity (338.15 K, x1 = 0.3997): 5.262 ± 0.16 mPa·s | mass density (338.15 K, x1 = 0.4903): 936.05 ± 0.43 kg/m3 | viscosity (338.15 K, x1 = 0.4903): 6.24 ± 0.19 mPa·s | mass density (338.15 K, x1 = 0.5703): 955.92 ± 0.46 kg/m3 | viscosity (338.15 K, x1 = 0.5703): 7.057 ± 0.21 mPa·s | mass density (338.15 K, x1 = 0.6949): 984.85 ± 0.53 kg/m3 | viscosity (338.15 K, x1 = 0.6949): 8.62 ± 0.25 mPa·s | mass density (338.15 K, x1 = 0.7981): 1007.36 ± 0.65 kg/m3 | viscosity (338.15 K, x1 = 0.7981): 9.943 ± 0.29 mPa·s | mass density (338.15 K, x1 = 0.8852): 1025.11 ± 0.79 kg/m3 | viscosity (338.15 K, x1 = 0.8852): 10.97 ± 0.32 mPa·s | mass density (338.15 K, x1 = 0.9793): 1042.8 ± 0.96 kg/m3 | viscosity (338.15 K, x1 = 0.9793): 12.38 ± 0.36 mPa·s | mass density (338.15 K, x1 = 1): 1046.43 ± 0.98 kg/m3 | viscosity (338.15 K, x1 = 1): 12.73 ± 0.37 mPa·s | mass density (348.15 K, x1 = 0.0806): 810.46 ± 0.45 kg/m3 | viscosity (348.15 K, x1 = 0.0806): 2.022 ± 0.081 mPa·s | mass density (348.15 K, x1 = 0.14): 829.85 ± 0.43 kg/m3 | viscosity (348.15 K, x1 = 0.14): 2.383 ± 0.09 mPa·s | mass density (348.15 K, x1 = 0.2203): 854.69 ± 0.42 kg/m3 | viscosity (348.15 K, x1 = 0.2203): 2.837 ± 0.1 mPa·s | mass density (348.15 K, x1 = 0.3006): 878.24 ± 0.41 kg/m3 | viscosity (348.15 K, x1 = 0.3006): 3.403 ± 0.12 mPa·s | mass density (348.15 K, x1 = 0.3997): 905.95 ± 0.42 kg/m3 | viscosity (348.15 K, x1 = 0.3997): 4.222 ± 0.14 mPa·s | mass density (348.15 K, x1 = 0.4903): 929.89 ± 0.44 kg/m3 | viscosity (348.15 K, x1 = 0.4903): 5.029 ± 0.16 mPa·s | mass density (348.15 K, x1 = 0.5703): 949.88 ± 0.46 kg/m3 | viscosity (348.15 K, x1 = 0.5703): 5.663 ± 0.17 mPa·s | mass density (348.15 K, x1 = 0.6949): 978.95 ± 0.53 kg/m3 | viscosity (348.15 K, x1 = 0.6949): 6.884 ± 0.21 mPa·s | mass density (348.15 K, x1 = 0.7981): 1001.53 ± 0.64 kg/m3 | viscosity (348.15 K, x1 = 0.7981): 7.93 ± 0.24 mPa·s | mass density (348.15 K, x1 = 0.8852): 1019.34 ± 0.77 kg/m3 | viscosity (348.15 K, x1 = 0.8852): 8.707 ± 0.26 mPa·s | mass density (348.15 K, x1 = 0.9793): 1037.06 ± 0.94 kg/m3 | viscosity (348.15 K, x1 = 0.9793): 9.802 ± 0.29 mPa·s | mass density (348.15 K, x1 = 1): 1040.7 ± 0.97 kg/m3 | viscosity (348.15 K, x1 = 1): 9.98 ± 0.3 mPa·s

— the NIST ThermoML archive (doi:10.1021/je901043q)
